What was measured:
[1] = tested on: Mouse colon cancer, Colon26; assay: Antitumor effect, Test Example 3: subcutaneously transplanted Colon26 in mice, single intravenous administration; assay type: in vivo, mouse (female CDF1 mice); details: 200 mg/kg (as combretastatin A-4), single i.v.
Procedure: (§1) Mouse colon cancer, Colon26, maintained by serial subcutaneous subculture in mice was minced into about 1-mm square fragments, and the fragments were subcutaneously transplanted on the dorsal part of female CDF1 mice with a trocar. Seven days after tumor transplantation, the high-molecular weight conjugate of the present invention (compound 2 and compound 3) or a control drug (combretastatin A-4 phosphoric acid ester) synthesized by a method according to Non-Patent Document 1 was administered a single time intravenously to the mouse tail vein, at a dose respectively calculated on the basis of combretastatin A-4. The control is a group not given the drug. Compound 2, compound 3 and the control drug were all dissolved in a 5% glucose injection solution and used. After the administration, the major axis (L mm) and the minor axis (W mm) of the tumor were measured using a caliper, and the volume of tumor was calculated by the formula: (L×W^2)/2.

[2] = tested on: Mouse colon cancer, Colon26; assay: Antitumor effect, Test Example 2: subcutaneously transplanted Colon26 in mice, single intravenous administration; assay type: in vivo, mouse (female CDF1 mice); details: single i.v.
Procedure: as §1, with “2-mm” for “1-mm”, “1)” for “2 and compound 3)”, “A-4)” for “A-4 phosphoric acid ester) synthesized by a method according to Non-Patent Document 1”, “1 was” for “2, compound 3 and the control drug were all”, “used. Combretastatin A-4 was dissolved in dimethylsulfoxide and Cremophor EL (manufactured by Sigma-Aldrich Company), and was used after diluted with a 5% glucose injection solution at the time of use.” for “used.”

Structure (SMILES) | relative tumor volume based on the tumor volume on the day of initiation of administration ([1]; day 0 after administration) | relative tumor volume based on the tumor volume on the day of initiation of administration ([1]; day 2 after administration) | relative tumor volume based on the tumor volume on the day of initiation of administration ([1]; day 4 after administration) | relative tumor volume based on the tumor volume on the day of initiation of administration ([1]; day 7 after administration) | relative tumor volume based on the tumor volume on the day of initiation of administration ([1]; day 9 after administration) | relative tumor volume based on the tumor volume on the day of initiation of administration ([2]; 200 mg/kg (as combretastatin A-4), day 0 after administration) | relative tumor volume based on the tumor volume on the day of initiation of administration ([2]; 200 mg/kg (as combretastatin A-4), day 2 after administration) | relative tumor volume based on the tumor volume on the day of initiation of administration ([2]; 200 mg/kg (as combretastatin A-4), day 4 after administration) | relative tumor volume based on the tumor volume on the day of initiation of administration ([2]; 200 mg/kg (as combretastatin A-4), day 7 after administration) | relative tumor volume based on the tumor volume on the day of initiation of administration ([2]; 200 mg/kg (as combretastatin A-4), day 8 after administration) | relative tumor volume based on the tumor volume on the day of initiation of administration ([2]; 400 mg/kg, day 0 after administration) | relative tumor volume based on the tumor volume on the day of initiation of administration ([2]; 400 mg/kg, day 2 after administration) | relative tumor volume based on the tumor volume on the day of initiation of administration ([2]; 400 mg/kg, day 4 after administration) | relative tumor volume based on the tumor volume on the day of initiation of administration ([2]; 400 mg/kg, day 7 after administration) | relative tumor volume based on the tumor volume on the day of initiation of administration ([2]; 400 mg/kg, day 8 after administration)
COc1ccc(/C=C\c2cc(OC)c(OC)c(OC)c2)cc1OP(=O)(O)O [Combretastatin A-4 phosphoric acid ester, combretastatin A-4 phosphoric acid ester] | 1.00 | 1.57 | 3.12 | 9.33 | 10.11 | – | – | – | – | – | – | – | – | – | –
COc1ccc(/C=C\c2cc(OC)c(OC)c(OC)c2)cc1O [Combretastatin A-4, combretastatin A-4] | – | – | – | – | – | 1.00 | 1.77 | 3.73 | 9.25 | 12.03 | 1.00 | 1.24 | 2.21 | 5.09 | 6.41

From patent US20100004403A1, “High-Molecular Weight Conjugate of Combretastatins” (priority 2006, published 2010)
